Data as given in paper PMC10610095 (Pharmaceuticals, 2023).
Values joined by “and” are separate entries in the source; they are usually repeats but may differ in a detail not shown here. Equal values may be shown once.

Legend:
[1] = tested on: GPR44; design: method as in PMID 30557325; details: clinical trial, orally administered; cited from earlier work
[2] = tested on: DP1; design: method as in PMID 33800801; details: cited from earlier work
[3] = tested on: TP; design: method as in PMID 33800801; details: cited from earlier work
[4] = target: T1, GPR44 (1.1 B4 tumor) (Homo sapiens, UniProt Q9Y5Y4); assay: Biodistribution in NOD/SCID mice implanted with 1.1 B4 cells, with and without blocking agent; assay type: in vivo; details: 30 min p.i.; for pancreas uptake: 1.1 B4 model; for tumor uptake: 1.1 B4 tumor
T1 construct: 1.1 B4 cells were implanted into NOD/SCID mice to generate GPR44-expressing mouse models; endogenous in cells; host or cells: human 1.1 B4 hybrid cell line (human pancreatic islet culture x PANC-1), subcutaneous xenograft in NOD/SCID mice
T1 sequence (Q9Y5Y4 1-395): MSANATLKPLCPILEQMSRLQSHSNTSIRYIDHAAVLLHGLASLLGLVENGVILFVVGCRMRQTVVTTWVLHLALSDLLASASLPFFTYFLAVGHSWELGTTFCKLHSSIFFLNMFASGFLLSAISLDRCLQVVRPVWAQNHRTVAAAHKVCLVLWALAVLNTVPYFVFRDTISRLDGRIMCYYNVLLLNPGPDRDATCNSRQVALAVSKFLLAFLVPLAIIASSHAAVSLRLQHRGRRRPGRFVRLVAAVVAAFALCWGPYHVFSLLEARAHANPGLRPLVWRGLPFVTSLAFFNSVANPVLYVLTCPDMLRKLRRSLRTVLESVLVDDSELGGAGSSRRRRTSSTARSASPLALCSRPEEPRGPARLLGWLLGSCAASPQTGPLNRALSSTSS
Description: NOD/SCID mice (n = 24) were subcutaneously injected with 1.1 B4 cells above their shoulders. Tumors were established 17–21 d after injection.
(§1) Under general anesthesia, NOD/SCID mice were administered doses of tracer (~3.7 MBq) intravenously through the tail vein, then the animals were euthanized at 30 min post-injection. Organs/tissues/tumors of interest were harvested, weighed, and gamma-counted. Radioactive uptakes were calculated and reported as percentage of injected dose per gram (% ID/g) for each organ/tissue/tumor.

[5] = target: T2, GPR44 (transplanted human islets) (Homo sapiens, UniProt Q9Y5Y4); assay: Biodistribution in NOD/SCID mice with transplanted human islets in a renal capsule; assay type: in vivo; details: 500 IEQ human islets, 30 min p.i., two individual mice
T2 construct: Only transplanted human islets were targeted by the GPR44 radio-probes; tissue Southern California Islet Cell Resources Center; host or cells: human pancreatic islets from healthy adult donors, 500 IEQ transplanted into the renal capsule of NOD/SCID mice
T2 sequence (Q9Y5Y4 1-395): T1 sequence (Q9Y5Y4 1-395)
Description: A procedure similar to that of the above murine biodistribution was performed in this biodistribution study. Mice were euthanized at 30 min post-injection, and the organs/tissues of interest were collected.
Human islets with diameters of less than 250 µm were used for transplantation. A total of 500 IEQ human islets were transplanted into the renal capsule of NOD/SCID mice (n = 5) using a well-established standard procedure.
as §1, with “Organs/tissues/islets” for “Organs/tissues/tumors”, “organ/tissue/islet.” for “organ/tissue/tumor.”

[6] = Biodistribution in healthy control NOD/SCID mice; assay type: in vivo; details: i.v.
Description: The uptake of the tracer in the kidney was ~4.00 ± 0.80% ID/g at 30 min p.i, 2.11 ± 1.06% ID/g at 60 min p.i., and 1.33 ± 0.47% ID/g at 90 min p.i. […] Low tracer uptake levels were common in the majority of organs, excluding excretion organs such as the liver. […] Of the time points, 30 min post-injection was chosen to evaluate the next specific GPR44 mouse models.
The biodistribution of [^18F]TM30089 was investigated in healthy NOD/SCID mice at various time points post-injection. Three time points (30 min, 60 min, or 90 min post-injection) and one blocking time point (30 min post-injection) were selected in the biodistribution (n = 4/each group). […] Under general anesthesia, NOD/SCID mice were administered doses of tracer (~3.7 MBq) intravenously through the tail vein. At the above-specified time points, the animals were euthanized, and the organs/tissues of interest were harvested. Organs/tissues were weighed, and the gamma was counted. Radioactive uptakes were calculated and reported as percentage of injected dose per gram (% ID/g) for each organ.

[7] = tested on: GPR44 vs thromboxane receptor (TP); design: method as in PMID 15179446; details: cited from earlier work

CC(=O)Nc1cccc2c1c(Sc1ccc(Cl)cc1)c(C)n2CC(=O)O [AZD1981]
improvement in insulin secretion [1]: did not show a significant improvement in insulin secretion

CN(C1CCc2c(c3ccccc3n2CC(=O)O)C1)S(=O)(=O)c1ccc(F)cc1 (stereo not shown) [TM-30089, {3-[(4-fluoro-benzenesulfonyl)methyl-amino]-1,2,3,4-tetrahydro-carbazol-9-yl}acetic acid]
off-target binding to DP1 [2]: negligible off-target binding | off-target binding to TP [3]: negligible off-target binding

CN(C1CCc2c(c3ccccc3n2CC(=O)O)C1)S(=O)(=O)c1ccc([18F])cc1 (stereo not shown) [[^18F]TM-30089]
pancreas uptake ([4]; blocked group (cold TM30089 1 mg/kg)): 0.26 ± 0.05 % ID/g | pancreas uptake ([4]; non-blocked group): 0.38 ± 0.04 % ID/g | tumor uptake ([4]; blocked with cold TM30089 (1 mg/kg)): 0.24 ± 0.02 % ID/g | tumor uptake ([4]; non-blocked): 27.81 ± 1.71 % ID/g | uptake in human islets transplanted into a kidney capsule [5]: 10.87 % ID/g and 6.21 % ID/g | uptake in other organs (heart, lung, pancreas, spleen) [6]: low uptakes | kidney uptake ([6]; 30 min p.i.): ~ 4.00 ± 0.80 % ID/g | liver uptake ([6]; 30 min p.i.): 15.31 ± 0.16 % ID/g | small intestine uptake ([6]; 30 min p.i.): 10.67 ± 2.13 % ID/g | kidney uptake ([6]; 60 min p.i.): 2.11 ± 1.06 % ID/g | liver uptake ([6]; 60 min p.i.): 8.76 ± 1.60 % ID/g | small intestine uptake ([6]; 60 min p.i.): 10.14 ± 0.47 % ID/g | kidney uptake ([6]; 90 min p.i.): 1.33 ± 0.47 % ID/g | liver uptake ([6]; 90 min p.i.): 6.62 ± 0.57 % ID/g | small intestine uptake ([6]; 90 min p.i.): 9.90 ± 0.26 % ID/g

O=C(O)CCn1c2c(c3ccccc31)C[C@H](NS(=O)(=O)c1ccc(F)cc1)CC2 [ramatroban]
selectivity for GPR44 than for TP (times less) [7]: approximately 16 times
